From US8158647B2, “Substituted pyrrolopyridines and pyrazolopyridines as kinase modulators” (SGX Pharmaceuticals, Inc., priority 2007, dated 2012)

Legend:
ABL T315I BAF3 cells = molecular target: T1, ABL T315I BAF3 cells (Homo sapiens, UniProt P00519, T315I, cells depend on it); experiment: 96-well XTT cell survival assay, BaF3 ABL T315I; assay type: cell-based; details: 72 hours, read-out: CELL BIO ABL T315I BAF3 XTT (IC50)
T1 construct: ABL T315I BAF3; fused on or other part: P11274 (Breakpoint cluster region protein)
Outline: (§1)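 Ba/F3 cells in RPMI 1640 with 10% FBS (IL-3 medium for maintenance) were seeded at 5000-8000 cells/well and exposed to compound dilutions in duplicate for 72 h at 37° C. Viability read by XTT/PMS, absorbance 405 nm minus 650 nm after 2-6 h.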

ABL P210WT BAF3 cells = molecular target: T2, ABL P210WT BAF3 cells (Homo sapiens, UniProt P00519); experiment: 96-well XTT cell survival assay, BaF3 ABL P210WT; assay type: cell-based; details: ABL P210 WT, 72 hours, read-out: CELL BIO ABL P210WT BAF3 XTT (IC50)
T2 construct: ABL P210WT BAF3; fused on or other part: P11274 (Breakpoint cluster region protein)
Outline: as §1

[1] = molecular target: T3, purified and unphosphorylated T315I Abl kinase domain (ABL_T315I_0P) (Mus musculus, UniProt P00520, T315I); experiment: c-Abl T315I (unphosphorylated kinase domain) pyruvate kinase/lactate dehydrogenase coupled enzyme assay; assay type: biochemical; details: 10 μM ATP
T3 construct: The c-Abl T3151 KD (kinase domain) was purified as follows; Met-Ser-Leu (vector-derived residues) (N); made in house; host or cells: E. coli BL21(DE3) strains (Codon+RIL, or pSA0145 for the lambda phosphatase co-expression plasmid)
T3 sequence (P00520 242-493 T315I limits assumed): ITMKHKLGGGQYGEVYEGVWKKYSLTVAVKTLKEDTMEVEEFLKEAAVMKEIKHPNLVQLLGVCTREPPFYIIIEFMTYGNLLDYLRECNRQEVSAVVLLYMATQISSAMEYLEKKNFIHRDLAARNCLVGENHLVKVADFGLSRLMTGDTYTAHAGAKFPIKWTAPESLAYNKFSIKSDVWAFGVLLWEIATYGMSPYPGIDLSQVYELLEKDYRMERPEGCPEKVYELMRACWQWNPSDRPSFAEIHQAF

Row | ABL_T315I_0P (IC50) [1] | SMILES | GI50 (ABL T315I BAF3 cells) | GI50 (ABL P210WT BAF3 cells)
1 | D (<0.01 μM) | CN(C)C(=O)C(O)c1cncc(-c2cnc3[nH]cc(-c4ccccc4F)c3c2Cl)c1 (stereo not drawn) [2-{5-[4-Chloro-3-(2-fluoro-phenyl)-1H-pyrrolo[2,3-b]pyridin-5-yl]-pyridin-3-yl}-2-hydroxy-N,N-dimethyl-acetamide] | 0.1 to 1 µM | 0.1 to 1 µM
2 | C (0.1-0.01 μM) | COc1ccccc1-c1n[nH]c2ncc(-c3cncc(C(O)C(=O)N(C)C)c3)c(Cl)c12 (stereo not drawn) [2-{5-[4-Chloro-3-(2-methoxy-phenyl)-1H-pyrazolo[3,4-b]pyridin-5-yl]-pyridin-3-yl}-2-hydroxy-N,N-dimethyl-acetamide] | 0.1 to 1 µM | 0.1 to 1 µM
3 | D (<0.01 μM) | COc1ccccc1-c1c[nH]c2ncc(-c3cncc(C(O)C(=O)N(C)C)c3)c(Cl)c12 (stereo not drawn) [2-{5-[4-Chloro-3-(2-methoxy-phenyl)-1H-pyrrolo[2,3-b]pyridin-5-yl]-pyridin-3-yl}-2-hydroxy-N,N-dimethyl-acetamide] | < 0.01 µM | < 0.01 µM
4 | D (<0.01 μM) | COc1ccccc1-c1c[nH]c2ncc(-c3cncc(CC(=O)N(C)C)c3)c(Cl)c12 [2-{5-[4-Chloro-3-(2-methoxy-phenyl)-1H-pyrrolo[2,3-b]pyridin-5-yl]-pyridin-3-yl}-N,N-dimethyl-acetamide] | 0.01 to 0.1 µM | 0.01 to 0.1 µM
5 | D (<0.01 μM) | COc1ncccc1-c1c[nH]c2ncc(-c3cncc(C(O)C(=O)N(C)C)c3)c(Cl)c12 (stereo not drawn) [2-{5-[4-Chloro-3-(2-methoxy-pyridin-3-yl)-1H-pyrrolo[2,3-b]pyridin-5-yl]-pyridin-3-yl}-2-hydroxy-N,N-dimethyl-acetamide] | 0.1 to 1 µM | 0.01 to 0.1 µM
6 | D (<0.01 μM) | COc1cnccc1-c1c[nH]c2ncc(-c3cncc(C(O)C(=O)N(C)C)c3)c(Cl)c12 (stereo not drawn) [2-{5-[4-Chloro-3-(3-methoxy-pyridin-4-yl)-1H-pyrrolo[2,3-b]pyridin-5-yl]-pyridin-3-yl}-2-hydroxy-N,N-dimethyl-acetamide] | > 1 µM | > 1 µM
7 | C (0.1-0.01 μM) | CN(C)C(=O)C(O)c1cncc(-c2cnc3[nH]cc(-c4ccc(F)cc4)c3c2Cl)c1 (stereo not drawn) [2-{5-[4-Chloro-3-(4-fluoro-phenyl)-1H-pyrrolo[2,3-b]pyridin-5-yl]-pyridin-3-yl}-2-hydroxy-N,N-dimethyl-acetamide] | > 1 µM | 0.1 to 1 µM
8 | D (<0.01 μM) | COc1ccncc1-c1c[nH]c2ncc(-c3cncc(C(O)C(=O)N(C)C)c3)c(Cl)c12 (stereo not drawn) [2-{5-[4-Chloro-3-(4-methoxy-pyridin-3-yl)-1H-pyrrolo[2,3-b]pyridin-5-yl]-pyridin-3-yl}-2-hydroxy-N,N-dimethyl-acetamide] | 0.1 to 1 µM | 0.1 to 1 µM
9 | D (<0.01 μM) | COc1ccccc1-c1c[nH]c2ncc(-c3cncc(C(O)C(=O)N(C)C)c3)c(C#N)c12 (stereo not drawn) [2-{5-[4-Cyano-3-(2-methoxy-phenyl)-1H-pyrrolo[2,3-b]pyridin-5-yl]-pyridin-3-yl}-2-hydroxy-N,N-dimethyl-acetamide] | > 1 µM | > 1 µM
10 | D (<0.01 μM) | CCc1c(-c2cncc(C(O)C(=O)N(C)C)c2)cnc2[nH]cc(-c3ccccc3OC)c12 (stereo not drawn) [2-{5-[4-Ethyl-3-(2-methoxy-phenyl)-1H-pyrrolo[2,3-b]pyridin-5-yl]-pyridin-3-yl}-2-hydroxy-N,N-dimethyl-acetamide] | 0.1 to 1 µM | 0.1 to 1 µM
11 | D (<0.01 μM) | COc1ccccc1-c1c[nH]c2ncc(-c3cncc(C(=O)C(=O)N(C)C)c3)c(OC)c12 [2-{5-[4-Methoxy-3-(2-methoxy-phenyl)-1H-pyrrolo[2,3-b]pyridin-5-yl]-pyridin-3-yl}-N,N-dimethyl-2-oxo-acetamide] | 0.01 to 0.1 µM | 0.1 to 1 µM
12 | C (0.1-0.01 μM) | COc1ccccc1-c1c[nH]c2ncc(Br)c(N(C)CCO)c12 [2-{[5-Bromo-3-(2-methoxy-phenyl)-1H-pyrrolo[2,3-b]pyridin-4-yl]-methyl-amino}-ethanol] | > 1 µM | > 1 µM
13 | D (<0.01 μM) | CN(C)C(=O)c1nc(-c2cnc3[nH]cc(-c4ccccc4)c3c2Cl)cnc1N [3-Amino-6-(4-chloro-3-phenyl-1H-pyrrolo[2,3-b]pyridin-5-yl)-pyrazine-2-carboxylic acid dimethylamide] | 0.1 to 1 µM | 0.1 to 1 µM
14 | D (<0.01 μM) | COc1ccccc1-c1c[nH]c2ncc(-c3cccc(C(=O)N(C)C)c3)c(C)c12 [3-[3-(2-Methoxy-phenyl)-4-methyl-1H-pyrrolo[2,3-b]pyridin-5-yl]-N,N-dimethyl-benzamide] | 0.01 to 0.1 µM | 0.01 to 0.1 µM
15 | D (<0.01 μM) | COc1ccccc1-c1c[nH]c2ncc(-c3cccc(C(=O)N(C)C)c3)c(Cl)c12 [3-[4-Chloro-3-(2-methoxy-phenyl)-1H-pyrrolo[2,3-b]pyridin-5-yl]-N,N-dimethyl-benzamide] | 0.01 to 0.1 µM | 0.01 to 0.1 µM
16 | C (0.1-0.01 μM) | CN(C)C(=O)c1nc(-c2cnc3[nH]cc(-c4ccc(F)cc4)c3c2Cl)cnc1N [3-amino-6-[4-chloro-3-(4-fluoro-phenyl)-1H-pyrrolo[2,3-b]pyridin-5-yl]-pyrazine-2-carboxylic acid dimethylamide] | 0.1 to 1 µM | 0.1 to 1 µM
17 | D (<0.01 μM) | COc1ccc(F)cc1-c1c[nH]c2ncc(-c3cnc(N)c(C(=O)N(C)C)n3)c(Cl)c12 [3-amino-6-[4-chloro-3-(5-fluoro-2-methoxy-phenyl)-1H-pyrrolo[2,3-b]pyridin-5-yl]-pyrazine-2-carboxylic acid dimethylamide] | 0.01 to 0.1 µM | < 0.01 µM
18 | B (1.0-0.1 μM) | CN(C)C(=O)c1cncc(-c2cnc3[nH]nc(-c4ccccc4)c3c2Cl)c1 [5-(4-Chloro-3-phenyl-1H-pyrazolo[3,4-b]pyridin-5-yl)-N,N-dimethyl-nicotinamide] | > 1 µM | > 1 µM
19 | D (<0.01 μM) | CN(C)C(=O)c1cncc(-c2cnc3[nH]cc(-c4ccccc4)c3c2Cl)c1 [5-(4-Chloro-3-phenyl-1H-pyrrolo[2,3-b]pyridin-5-yl)-N,N-dimethyl-nicotinamide] | > 1 µM | > 1 µM
20 | C (0.1-0.01 μM) | COc1ccccc1-c1c[nH]c2ncc(Br)c(N)c12 [5-Bromo-3-(2-methoxy-phenyl)-1H-pyrrolo[2,3-b]pyridin-4-ylamine] | > 1 µM | > 1 µM
21 | B (1.0-0.1 μM) | COc1ccccc1-c1c[nH]c2ncc(Br)c(SC)c12 [5-Bromo-3-(2-methoxy-phenyl)-4-methylsulfanyl-1H-pyrrolo[2,3b]pyridine] | > 1 µM | > 1 µM
22 | D (<0.01 μM) | CN(C)C(=O)c1cncc(-c2cnc3[nH]cc(-c4cccc(F)c4F)c3c2Cl)c1 [5-[4-Chloro-3-(2,3-difluoro-phenyl)-1H-pyrrolo[2,3-b]pyridin-5-yl]-N,N-dimethyl-nicotinamide] | 0.1 to 1 µM | 0.1 to 1 µM
23 | C (0.1-0.01 μM) | CN(C)C(=O)c1cncc(-c2cnc3[nH]cc(-c4ccc(F)cc4F)c3c2Cl)c1 [5-[4-Chloro-3-(2,4-difluoro-phenyl)-1H-pyrrolo[2,3-b]pyridin-5-yl]-N,N-dimethyl-nicotinamide] | > 1 µM | > 1 µM
24 | D (<0.01 μM) | CN(C)C(=O)c1cncc(-c2cnc3[nH]cc(-c4ccccc4Cl)c3c2Cl)c1 [5-[4-Chloro-3-(2-chloro-phenyl)-1H-pyrrolo[2,3-b]pyridin-5-yl]-N,N-dimethyl-nicotinamide] | > 1 µM | 0.1 to 1 µM
25 | C (0.1-0.01 μM) | CNC(=O)c1cncc(-c2cnc3[nH]cc(-c4ccccc4F)c3c2Cl)c1 [5-[4-Chloro-3-(2-fluoro-phenyl)-1H-pyrrolo[2,3-b]pyridin-5-yl]-N-methyl-nicotinamide] | > 1 µM | > 1 µM
26 | D (<0.01 μM) | CSc1ccccc1-c1c[nH]c2ncc(-c3cncc(C(=O)N(C)C)c3)c(Cl)c12 [5-[4-Chloro-3-(2-methylsulfanyl-phenyl)-1H-pyrrolo[2,3-b]pyridin-5-yl]-N,N-dimethyl-nicotinamide] | > 1 µM | > 1 µM
27 | B (1.0-0.1 μM) | Cc1noc(C)c1-c1c[nH]c2ncc(-c3cncc(C(=O)N(C)C)c3)c(Cl)c12 [5-[4-Chloro-3-(3,5-dimethyl-isoxazol-4-yl)-1H-pyrrolo[2,3-b]pyridin-5-yl]-N,N-dimethyl-nicotinamide] | > 1 µM | > 1 µM
